# According to patent publication US20040171650A1, “Novel anthelmintic and insecticidal compositions” (priority 2003, published 2004):
# System: Ascaris suum muscle strip
# Assay: Ascaris suum muscle tension assay
# Settings: 30 uM final bath concentration; 2 cm Ascaris suum muscle strip in Ascaris Ringers Solution, 37°
# Description: Compounds of the invention were evaluated in an allatostatin receptor binding assay as has been described (Larsen, M. J. et. al., Biochemical and Biophysical […] Communications, 2001, 286, 895-901; Lowery, D. E., et. al., 2001, WO 01/31005). Anthelmintic activity was evaluated in a Ascaris suum muscle tension assay as has been described (Bowman, J. W., et. al., J Neurophys., 1995, 74(5), 1880-8; Davis, R. E., et. al., J. Neurosci., 1989, 9, 403-414). As previously described (Bowman, op.cit.), a 2 cm segment of Ascaris suum muscle strip was suspended in a muscle bath filled with 37° Ascaris Ringers Solution {ARS; in mM: KCl (24.5), CaCl2 (5.9), MgCl2 (4.9), NaCl (4), NaC2 H3O2 (125) and Tris (5); pH 7.4}. The preparations were initially set at 12-15 g of tension and allowed to stabilize for approximately 15-30 minutes before drug treatment. Test compounds were added by pipet to the bath with final concentration of 30 uM reflecting the dilution in the test chamber. Raw data was collected from the BioReportTM program.
row,Compound,Activity
1,COc1ccc(C(=O)CSc2nnc(-c3ccncc3)n2-c2ccccc2)cc1 [Compound 6],Excitatory

# Biological target: DAR-2 (Drosophila melanogaster, UniProt Q7KRX1)
# Sequence (Q7KRX1 entry or part of it): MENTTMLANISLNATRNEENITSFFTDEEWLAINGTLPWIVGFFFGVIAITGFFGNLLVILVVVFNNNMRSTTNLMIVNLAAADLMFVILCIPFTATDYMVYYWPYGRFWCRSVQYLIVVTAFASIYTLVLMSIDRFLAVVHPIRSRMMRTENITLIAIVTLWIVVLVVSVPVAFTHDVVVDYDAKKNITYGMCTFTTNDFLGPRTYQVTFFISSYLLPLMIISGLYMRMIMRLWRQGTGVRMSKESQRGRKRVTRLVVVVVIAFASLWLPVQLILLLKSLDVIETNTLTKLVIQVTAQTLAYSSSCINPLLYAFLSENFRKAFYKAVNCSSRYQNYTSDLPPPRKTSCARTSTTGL
# Assay: DAR-2 (allatostatin receptor) calcium response FLIPR assay in transfected CHO cells
# Format: cell-based
# Settings: CHO cells transfected with DAR-2 DNA; calcium signal (Fluo-3AM, FLIPR)
# Description: Compounds of the invention were evaluated in an allatostatin receptor binding assay as has been described (Larsen, M. J. et. al., Biochemical and Biophysical Reseach Communications, 2001, 286, 895-901; Lowery, D. E., et. al., 2001, WO 01/31005). Anthelmintic activity was evaluated in a Ascaris suum muscle tension assay as has been described (Bowman, J. W., et. al., J Neurophys., 1995, 74(5), 1880-8; Davis, R. E., et. al., J. Neurosci., 1989, 9, 403-414).
# As previously described (Larsen op.cit.), CHO cells were transfected with the DAR-2 DNA on 10 cm plates ([…]) and were trypsinized 24 h after transfections and were plated at a density of 2×10^4 cells/well in black-walled, 96-well plates and incubated for an additional 24 hrs at 37° C./5% CO2 either with or without pertussis toxin (PTX, 100 ng/ml). On the day of treatment, the media were aspirated, the cells were washed with HBBS/HEPES (Hank's Balanced Salt Solution, supplemented with 10 mM HEPES) and incubated with 4 μM Fluo-3AM in HBSS/HEPES, additionally supplemented with 2.5 mM probenecid to inhibit multi drug resistant pump (0.1 ml/well) for 1 h at 37° C./5% CO2. Plates were washed twice with warm HBSS/HEPES/ probenecid buffer immediately prior to activation of the calcium response and 100 μl buffer/per well was left after the last wash. A calcium response was initiated by the addition of candidate receptor agonist compounds (2× concentration in HBSS/HEPES, 100 μl/well). The DSK-R1/SHEP cells were loaded for 1 h at 37° C./5% CO2 with 4 μM calcium green/0.02% pluronic acid in modified Earle's balanced salt solution containing 4 mM CaCl2 dihydrate, 0.8 mM MgSO4.7H2O, 20 mM NaCl, 20 mM Tris-HEPES, 120 mM N-methyl-D-glucamine/HCl, 5.3 mM KCl, […], and 9 mM Tris base. Fluorescence was measured on a 96-well plate-based fluorescence imaging plate reader (FLIPR) with an argon laser (Molecular Devices, Sunnyvale, Calif.). Basal fluorescence of cells was measured for 20 seconds prior to addition of candidate agonist and the basal fluorescence level was subtracted from the response signal. The calcium signal was measured for approximately 200 seconds with readings every two seconds. Calcium ionophore A23187 was used as a control for non-receptor specific calcium release. […]
row,Compound,IC50 [nM]
1,CC(=O)Nc1ccc(C(=O)CSc2nnc(-c3ccncc3)n2-c2ccccc2)cc1[N+](=O)[O-] [Compound 9],765
2,CC(=O)Nc1ccc(C(=O)CSc2nnc(-c3ccncc3)n2-c2ccccc2)cc1 [Compound 10],297
3,COc1ccc(-n2c(SCC(=O)c3ccc4c(c3)OCCO4)nnc2-c2ccncc2)cc1 [Compound 36],103
4,COc1ccc(C(=O)CSc2nnc(-c3ccc(OC)cc3)n2-c2ccccc2)cc1 [Compound 43],0.0014

# The remaining lines, values ahead:
row,IC50 [nM],Compound
1,54,COc1ccc(C(=O)CSc2nnc(-c3ccncc3)n2-c2ccccc2)cc1 [Compound 6]
2,77,O=C(CSc1nnc(-c2ccncc2)n1-c1ccccc1)c1ccc(Cl)cc1 [Compound 7]
3,268,O=C(CSc1nnc(-c2ccncc2)n1-c1ccccc1)c1ccc(F)cc1 [Compound 11]
4,124,O=C(CSc1nnc(-c2ccncc2)n1-c1ccccc1)c1ccccc1 [Compound 12]
5,1200,O=C(CSc1nnc(-c2ccncc2)n1-c1ccccc1)c1ccc(Cl)cc1Cl [Compound 13]
6,436,O=C(CSc1nnc(-c2ccncc2)n1-c1ccccc1)c1ccc2c(c1)OCCO2 [Compound 14]
7,4500,O=C(CSc1nnc(-c2ccncc2)n1-c1ccccc1)c1ccc2[nH]c(=O)oc2c1 [Compound 15]
